Results taken from patent US8313949B2, “Detecting phospholipidosis and diagnosing lysosomal storage disorders” (Nextcea Inc., priority 2009, dated 2012).

Columns and labels:
rats [1] = details: rat, in vivo
Experimental: The relationship between amiodarone, azithromycin, or citalopram exposure and the occurrence of drug-induced phospholipidosis was investigated in Fisher rats. Rats were treated with amiodarone (50 mg/kg/day), azithromycin (100 mg/kg/day), citalopram (90 mg/kg/day), or no drug for 4-weeks. Urine samples were collected from each animal and prepared for analysis using a liquid/liquid extraction method. The urine samples (200 μl urine per rat) were mixed with cold 3:1 chloroform/methanol (v/v) (400 μl) and vortexed before adding 0.1% formic acid (aq.) (100 μl). The samples were vortexed again, allowed to sit for 5 min, and centrifuged for 15 min. The bottom (organic) layer was carefully removed and concentrated to dryness. The samples were reconstituted to 30 μl with 0.05% formic acid in 2:1 acetonitrile/methanol (v/v).
The molecular profile of each urine sample was acquired using liquid chromatography coupled to mass spectrometry (LC/MS). Injections were made onto a 150×2.00 mm Synergi Hydro-RP column (Phenomenex, Torrance, Calif., USA) using an a Gilson 235 auto-injector (Gilson, Inc., Middletown, Wis., USA) and an Agilent 1100 binary pump (Agilent Technologies, Palo Alto, Calif., USA). Mobile phase A was 0.25% ammonium hydroxide, 0.05% formic acid in 88:12 methanol/water (v/v). Mobile phase B was 0.25% ammonium hydroxide, 0.05% formic acid in 80:20 methanol/hexane (v/v). […]

rats [2] = assay: Urinary di-C22:6-BMP levels during 17-day azithromycin treatment (Example 4); format: in vivo, rat; details: azithromycin 150 mg/kg/day, all isoforms (FIG. 9)
Experimental: The methods described above were used to evaluate the tissue phospholipidosis induced by azithromycin (150 mg/kg/day) in rats over a 17-day period. Urine samples were collected from the rats on Days 11 and 17 and subjected to the assay. […] On Day 11, the mean level (n=5 rats per group) of di-C22:6-BMP in urine was increased by 2.6-fold in the rats treated with azithromycin compared to the controls. On Day 17, the mean level (n=5 rats per group) of di-C22:6-BMP in urine was increased approximately by 4.5-fold in the azithromycin treated rats compared to the control rats.

[3] = system: bronchoalveolar lavage (BAL) cells; details: patients with amiodarone pulmonary toxicity; Martin and Standing 1988; cited from earlier work

CCN(CC)CCCC(C)Nc1ccnc2cc(Cl)ccc12 (stereo not drawn) [chloroquine]
level of di-22:6-PG in urine (rats [1]): not

CC[C@H]1OC(=O)[C@H](C)[C@@H](O[C@H]2C[C@@](C)(OC)[C@@H](O)[C@H](C)O2)[C@H](C)[C@@H](O[C@@H]2O[C@H](C)C[C@H](N(C)C)[C@H]2O)[C@](C)(O)C[C@@H](C)CN(C)[C@H](C)[C@@H](O)[C@]1(C)O [azithromycin]
increase of mean level of di-C22:6-BMP in urine compared to controls, Day 11 (rats [2]; Day 11, n=5 rats per group): 2.6 fold | increase of mean level of di-C22:6-BMP in urine compared to controls, Day 17 (rats [2]; Day 17, n=5 rats per group): ~4.5 fold

CCCCc1oc2ccccc2c1C(=O)c1cc(I)c(OCCN(CC)CC)c(I)c1 [amiodarone]
level of di-22:6-PG in urine (rats [1]): increased | increase in total BMP in BAL cells compared to control subjects [3]: +64% | increase in total PG in BAL cells compared to control subjects [3]: +1866%
